Measured values taken from patent US20130331412A9, “Pharmaceutical Compositions and Administrations Thereof” (VERTEX PHARMACEUTICALS INCORPORATED, priority 2010, published 2013).

Tests used:
Test in all cases: FRT cell Ussing chamber chloride transport assay
Type in all cases: cell-based
[1] = target: T1, human CFTR mutant D579G (Homo sapiens, UniProt P13569, D579G); conditions: FRT cells expressing D579G CFTR
T1 construct: expressed in transfected cells; host or cells: Fisher rat thyroid (FRT) FlpIn cells, pcDNA5/FRT
T1 sequence (P13569 whole entry D579G): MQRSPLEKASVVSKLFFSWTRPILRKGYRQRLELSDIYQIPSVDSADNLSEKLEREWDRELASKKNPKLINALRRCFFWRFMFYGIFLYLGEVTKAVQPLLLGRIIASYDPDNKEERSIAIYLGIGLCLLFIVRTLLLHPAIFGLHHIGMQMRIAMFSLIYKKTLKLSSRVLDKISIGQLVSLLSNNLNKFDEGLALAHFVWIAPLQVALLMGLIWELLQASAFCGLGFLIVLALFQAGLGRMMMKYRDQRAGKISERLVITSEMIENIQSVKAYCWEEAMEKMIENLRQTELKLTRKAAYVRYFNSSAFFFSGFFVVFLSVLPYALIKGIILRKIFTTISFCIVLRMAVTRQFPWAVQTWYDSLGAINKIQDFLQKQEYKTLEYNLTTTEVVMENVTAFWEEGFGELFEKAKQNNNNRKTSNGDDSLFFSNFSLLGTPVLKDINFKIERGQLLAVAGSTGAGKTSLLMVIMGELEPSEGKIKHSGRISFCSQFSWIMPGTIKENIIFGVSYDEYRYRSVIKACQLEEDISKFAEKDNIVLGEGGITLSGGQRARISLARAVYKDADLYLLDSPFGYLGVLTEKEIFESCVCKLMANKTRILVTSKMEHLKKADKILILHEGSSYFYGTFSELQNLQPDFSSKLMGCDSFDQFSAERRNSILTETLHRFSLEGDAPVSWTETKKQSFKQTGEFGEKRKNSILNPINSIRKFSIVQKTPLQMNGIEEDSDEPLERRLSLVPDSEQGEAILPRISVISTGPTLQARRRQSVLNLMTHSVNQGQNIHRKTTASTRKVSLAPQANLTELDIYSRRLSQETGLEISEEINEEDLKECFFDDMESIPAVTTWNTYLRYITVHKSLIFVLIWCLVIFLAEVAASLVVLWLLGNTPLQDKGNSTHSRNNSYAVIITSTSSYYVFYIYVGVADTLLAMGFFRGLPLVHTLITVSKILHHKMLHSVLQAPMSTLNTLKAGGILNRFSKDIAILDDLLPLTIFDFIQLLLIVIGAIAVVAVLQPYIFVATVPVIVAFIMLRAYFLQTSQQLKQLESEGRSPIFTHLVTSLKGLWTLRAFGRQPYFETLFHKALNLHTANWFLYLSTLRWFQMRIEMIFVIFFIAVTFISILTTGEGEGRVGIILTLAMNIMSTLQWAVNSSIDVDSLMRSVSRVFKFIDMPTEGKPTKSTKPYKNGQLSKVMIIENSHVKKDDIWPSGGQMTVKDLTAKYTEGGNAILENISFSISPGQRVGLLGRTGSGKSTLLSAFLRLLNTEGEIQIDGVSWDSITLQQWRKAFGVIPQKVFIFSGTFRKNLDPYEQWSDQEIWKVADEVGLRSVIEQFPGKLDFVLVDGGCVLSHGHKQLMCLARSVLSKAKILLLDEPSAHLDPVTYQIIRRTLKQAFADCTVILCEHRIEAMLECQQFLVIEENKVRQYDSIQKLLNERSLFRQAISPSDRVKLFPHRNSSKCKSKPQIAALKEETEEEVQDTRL
Description: (§1) DNA cloning: Wild-type CFTR coding region was inserted into pcDNA5/FRT (Invitrogen, San Diego, Calif.) between EcoRV and ApaI.
(§2) Single CFTR gene mutations were introduced into the wild-type CFTR coding sequence by using QuickChange XL site-directed mutagenesis kit (Stratagene, Cambridge, UK). The CFTR coding region as well as its promoter sequence and 3′ untranslated sequence was fully sequenced to confirm the mutagenesis reaction.
(§3) The CFTR gene was stably expressed in Fisher rat thyroid (FRT) cells through FlpIn system. The FRT-FlpIn host cell line was generated by stably transfecting FRT cells with pFRT/lacZeo. The single integration of a FRT site was confirmed by Southern blot. After the mutant CFTR DNA was transfected into the FRT-FlpIn host cell line, the cells were incubate at 37° C. in Coon's modified Ham's F12 containing 10% FBS, 1% Pen/Strep, and 36 ml of Na− Bicarbonate for up to 8 passages under hygromycin selection (200 ug/ml).
(§4) All cells were grown on Costar® Snapwell™ cell culture inserts at maintained at 37° C. prior to recording. The cell culture inserts were mounted into an Ussing chamber (VCC MC8; Physiologic Instruments, Inc., San Diego, Calif.) to record ISC in the voltage-clamp mode (Vhold=0 mV). For FRT cells, the basolateral membrane was permeabilized with 360 μg/ml Nystatin and a basolateral to apical Cl− gradient was established. The basolateral bath solution contained (in mM); 135 NaCl, 1.2 CaCl2, 1.2 MgCl2, 2.4 K2HPO4, 0.6 KHPO4, 10 N-2-hydroxyethylpiperazine-N′-2-ethanesulfonic acid (HEPES), and 10 dextrose (titrated to pH 7.4 with NaOH). The apical NaCl was replaced by equimolar Na+ gluconate (titrated to pH 7.4 with NaOH). For HBE cells, the ISC was measured in the presence of a basolateral to apical Cl− gradient. The normal Cl− solution contained (in mM) 145 NaCl, 3.3 K2HPO4, 1.2 MgCl2, 1.2 CaCl2, 10 Glucose, 10 HEPES (pH adjusted to 7.35 with NaOH) and the low Cl− solution contained (in mM) 145 NaGluconate, 1.2 MgCl2, 1.2 CaCl2, 10 glucose, 10 HEPES (pH adjusted to 7.35 with NaOH). All recordings were digitally acquired using a Acquire and Analyze software (version 2; Physiologic Instruments, Inc. San Diego, Calif.).
(§5) The 10 μM forskolin stimulated response in FRT cell expressing different mutant CFTR forms or in HBE cells isolated from CF patients was normalized to the 10 μM forskolin-stimulated response in FRT cells expressing wild-type CFTR or in HBE isolated from non-CF individuals and expressed as % wild-type CFTR. In HBE, amiloride was added prior to forskolin application to block the epithelial Na+ channel.

[2] = target: T2, human CFTR mutant S1251N (Homo sapiens, UniProt P13569, S1251N); conditions: FRT cells expressing S1251N CFTR
T2 construct: expressed in transfected cells; host or cells: Fisher rat thyroid (FRT) FlpIn cells, pcDNA5/FRT
T2 sequence (P13569 whole entry S1251N): as the sequence (P13569 whole entry D579G) above, with G579D, S1251N counted along it
Description: as §1, §2, §3, §4, §5

[3] = target: T3, human CFTR mutant E56K (Homo sapiens, UniProt P13569, E56K); conditions: FRT cells expressing E56K CFTR
T3 construct: expressed in transfected cells; host or cells: Fisher rat thyroid (FRT) FlpIn cells, pcDNA5/FRT
T3 sequence (P13569 whole entry E56K): as the sequence (P13569 whole entry D579G) above, with E56K, G579D counted along it
Description: as §1, §2, §3, §4, §5

[4] = target: T4, human CFTR mutant S1255P (Homo sapiens, UniProt P13569, S1255P); conditions: FRT cells expressing S1255P CFTR
T4 construct: expressed in transfected cells; host or cells: Fisher rat thyroid (FRT) FlpIn cells, pcDNA5/FRT
T4 sequence (P13569 whole entry S1255P): as the sequence (P13569 whole entry D579G) above, with G579D, S1255P counted along it
Description: as §1, §2, §3, §4, §5

[5] = target: T5, human CFTR mutant P67L (Homo sapiens, UniProt P13569, P67L); conditions: FRT cells expressing P67L CFTR
T5 construct: expressed in transfected cells; host or cells: Fisher rat thyroid (FRT) FlpIn cells, pcDNA5/FRT
T5 sequence (P13569 whole entry P67L): as the sequence (P13569 whole entry D579G) above, with P67L, G579D counted along it
Description: as §1, §2, §3, §4, §5

[6] = target: T6, human CFTR mutant R352Q (Homo sapiens, UniProt P13569, R352Q); conditions: FRT cells expressing R352Q CFTR
T6 construct: expressed in transfected cells; host or cells: Fisher rat thyroid (FRT) FlpIn cells, pcDNA5/FRT
T6 sequence (P13569 whole entry R352Q): as the sequence (P13569 whole entry D579G) above, with R352Q, G579D counted along it
Description: as §1, §2, §3, §4, §5

[7] = target: T7, human CFTR mutant A455E (Homo sapiens, UniProt P13569, A455E); conditions: FRT cells expressing A455E CFTR
T7 construct: expressed in transfected cells; host or cells: Fisher rat thyroid (FRT) FlpIn cells, pcDNA5/FRT
T7 sequence (P13569 whole entry A455E): as the sequence (P13569 whole entry D579G) above, with A455E, G579D counted along it
Description: as §1, §2, §3, §4, §5

[8] = target: T8, human CFTR mutant R117C (Homo sapiens, UniProt P13569, R117C); conditions: FRT cells expressing R117C CFTR
T8 construct: expressed in transfected cells; host or cells: Fisher rat thyroid (FRT) FlpIn cells, pcDNA5/FRT
T8 sequence (P13569 whole entry R117C): as the sequence (P13569 whole entry D579G) above, with R117C, G579D counted along it
Description: as §1, §2, §3, §4, §5

[9] = target: T9, human CFTR mutant D1270N (Homo sapiens, UniProt P13569, D1270N); conditions: FRT cells expressing D1270N CFTR
T9 construct: expressed in transfected cells; host or cells: Fisher rat thyroid (FRT) FlpIn cells, pcDNA5/FRT
T9 sequence (P13569 whole entry D1270N): as the sequence (P13569 whole entry D579G) above, with G579D, D1270N counted along it
Description: as §1, §2, §3, §4, §5

[10] = target: T10, human CFTR mutant G178R (Homo sapiens, UniProt P13569, G178R); conditions: FRT cells expressing G178R CFTR
T10 construct: expressed in transfected cells; host or cells: Fisher rat thyroid (FRT) FlpIn cells, pcDNA5/FRT
T10 sequence (P13569 whole entry G178R): as the sequence (P13569 whole entry D579G) above, with G178R, G579D counted along it
Description: as §1, §2, §3, §4, §5

[11] = target: T11, human CFTR mutant S549N (Homo sapiens, UniProt P13569, S549N); conditions: FRT cells expressing S549N CFTR
T11 construct: expressed in transfected cells; host or cells: Fisher rat thyroid (FRT) FlpIn cells, pcDNA5/FRT
T11 sequence (P13569 whole entry S549N): as the sequence (P13569 whole entry D579G) above, with S549N, G579D counted along it
Description: as §1, §2, §3, §4, §5

[12] = target: T12, human CFTR mutant S1235R (Homo sapiens, UniProt P13569, S1235R); conditions: FRT cells expressing S1235R CFTR
T12 construct: expressed in transfected cells; host or cells: Fisher rat thyroid (FRT) FlpIn cells, pcDNA5/FRT
T12 sequence (P13569 whole entry S1235R): as the sequence (P13569 whole entry D579G) above, with G579D, S1235R counted along it
Description: as §1, §2, §3, §4, §5

[13] = target: T13, human CFTR mutant D1152H (Homo sapiens, UniProt P13569, D1152H); conditions: FRT cells expressing D1152H CFTR
T13 construct: expressed in transfected cells
T13 sequence (P13569 whole entry D1152H): as the sequence (P13569 whole entry D579G) above, with G579D, D1152H counted along it
Description: as §1, §2, §3, §4, §5

CC(C)(C)c1cc(C(C)(C)C)c(NC(=O)c2c[nH]c3ccccc3c2=O)cc1O [Compound 1, N-[2,4-bis(1,1-dimethylethyl)-5-hydroxyphenyl]-1,4-dihydro-4-oxoquinoline-3-carboxamide]
increase in chloride transport, relative to baseline chloride transport [1]: greater than or equal to 10% | increase in chloride transport, relative to baseline chloride transport [2]: greater than 10 fold | increase in chloride transport, relative to baseline chloride transport [3]: greater than or equal to 10% | increase in chloride transport, relative to baseline chloride transport [4]: greater than 10 fold | increase in chloride transport, relative to baseline chloride transport [5]: greater than or equal to 10% | increase in chloride transport, relative to baseline chloride transport [6]: greater than or equal to 10% | increase in chloride transport, relative to baseline chloride transport [7]: greater than or equal to 10% | increase in chloride transport, relative to baseline chloride transport [8]: greater than or equal to 10% | increase in chloride transport, relative to baseline chloride transport [9]: greater than or equal to 10% | increase in chloride transport, relative to baseline chloride transport [10]: greater than 10 fold | increase in chloride transport, relative to baseline chloride transport [11]: greater than 10 fold | increase in chloride transport, relative to baseline chloride transport [12]: greater than or equal to 10% | increase in chloride transport, relative to baseline chloride transport [13]: greater than or equal to 10%
